Experimental findings from patent US20110200618A1, “ERBB4 INHIBITORS AND USES THEREOF IN TREATMENT OF NEUROPSYCHIATRIC DISORDERS” (priority 2008, published 2011) are described below.

The structures appear in SMILES notation.

What all share (assay type): cell-based
For assay [1], the system named is NRG1 induced ERK activation. Description: NRG1 induced ERK activation in human olfactory epithelial (hOE) cultures, western blot. The conditions noted are these: healthy person, inhibitors 20 min, then 100 ng/ml NRG1 10 min, 10 μM U0126, 10 nM wortmannin, 100 nM K-252, 2.5 μM AG1478, 1 μM AG879. (In general: Immunoblotting shows a protein as a band on a membrane.)
Procedure: Protein extracts were analyzed for the expression of p-ERK and glyeraldehyde 3-dehydrogenase (GAPDH). U, 10 μM of U0126: W, 10 nM of wortmannin: K, 100 nM K-252, 2.5 μM of AG1478 and 1 μM of AG879;
Protein extracts were analyzed for the expression of p-ERK and glyceraldehyde 3-dehydrogenase (GAPDH). (A) A representative western blotting (B) p-ERK intensities were normalized with respect to GAPDH, which were then used to calculate percent inhibition.
As an internal control experiment, the cells were also incubated with inhibitors for ERK, AKT or trkb activation, U0126, wortmannin or K-252 respectively.

A further assay has as its system activation of ERK. Description: NRG1 stimulation of post-mortem mouse brain tissues after 60 min pre-incubation, ERK activation. Particulars: post-mortem mouse brain tissue slices, GSK compound at 10 μM, 100 ng/ml NRG1, vehicle control also failed to respond to NRG1. On the procedure: Protein extracts were analyzed for the expression of p-ERK;
To enhance the permeability of the inhibitors, tissue slices were pre-incubated with the inhibitors for 60 min before added with NRG1.

In assay [2] the test system is NRG1 induced ERK activation. Description: NRG1 stimulation of post-mortem human prefrontal cortex tissues, ERK activation. Particulars: post-mortem PFC of healthy control; 2.5 μM AG1478 pre-incubated 15 min, 100 ng/ml NRG1. On the procedure:
NRG1 stimulation of human post-mortem PFC. 100 mg of post-mortem brain tissues of a healthy control subject were incubated with or without 100 ng/ml of NRG1 in the presence or absence of 2.5 μM AG1478. Protein extracts were analyzed for p-ERK and ERK;
Protein extracts were analyzed for the expression of ERK, AKT and GSK and their phosphorylated counterparts;
erbB stimulation/inhibition experiment wastested in post-mortem brain tissues. FIG. 2 represents an experiment, in which the PFC of a healthy control subject was stimulated with NRG1 in the presence of AG1478. In this experiment, the tissues were incubated with the inhibitor for 15 min before added with 100 ng/ml of NRG1.
GSK1495829A was tested in post-mortem mouse and human brain tissues. FIG. 4 represents an experiment, in which the PFC tissues of a healthy control subject were pre-incubated with varied concentrations of the inhibitor for 15 min before the ligand stimulation with 100 ng/ml of NRG1. […] One possible explanation could be that the brain tissues are less permeable to the inhibitors than OE culture cells.

The test system of the next assay is activation of AKT. The experiment in a line: NRG1 stimulation of post-mortem mouse brain tissues after 60 min pre-incubation, AKT activation. Particulars: post-mortem mouse brain tissue slices, GSK compound at 10 μM, 100 ng/ml NRG1.

`CC(C)(C)c1cc(C=C(C#N)C(N)=S)cc(C(C)(C)C)c1O` [AG 879, α-Cyano-(3,5-di-t-butyl-4-hydroxy)thiocinnamide]: in assay [1], the “NRG1 induced p-ERK with respect to GAPDH” value is listed as “attenuated”.

As to `COc1cc2ncnc(Nc3cccc(Cl)c3)c2cc1OC` [AG 1478, 4-(3-Chloroanilino)-6,7-dimethoxyquinazoline], in the assay on activation of ERK, the “activation of ERK” value is recorded as “did not reduce”. In addition, in assay [2], the “NRG1 induced ERK activation (ratio p-ERK to ERK)” value is recorded as “significantly reduced”. In addition, in the assay with activation of AKT, the “activation of AKT” value is recorded as “did not reduce”. In assay [1], the “NRG1 induced p-ERK with respect to GAPDH” value is on record as “attenuated”.

With `N#CC(=C(/N)Sc1ccccc1N)/C(C#N)=C(\N)Sc1ccccc1N` [U0126], in assay [1], the “NRG1 induced p-ERK with respect to GAPDH” value is “significantly reduced”.
